From US20250281464A1, “TREATMENT OF PATHOGENIC NEISSERIA SP. INFECTION WITH TRIAZOLE ANTIFUNGAL AGENTS” (Virginia Tech Intellectual Properties, Inc., priority 2022, published 2025)
≈ marks a conversion by molar mass, not a printed value. Read-outs that look alike come from different tables or passages of the source.

What was measured:
[1] = test system: L. jensenii; experiment: MIC against commensal vaginal Lactobacillus strains; assay type: cell-based, Lactobacillus jensenii; details: for MIC: Lactobacillus jensenii
[2] = test system: L. gasseri; experiment: as above; assay type: cell-based, Lactobacillus gasseri; details: for MIC: Lactobacillus gasseri
[3] = test system: N. gonorrhoeae isolates; experiment: MIC against panel of N. gonorrhoeae clinical isolates; assay type: cell-based, Neisseria gonorrhoeae; details: for MIC50 / MIC90: Neisseria gonorrhoeae; for MIC50: read-out: MIC50; for MIC90: read-out: MIC90
[4] = test system: N. gonorrhoeae; experiment: Drug library screen against N. gonorrhoeae; assay type: cell-based, Neisseria gonorrhoeae; details: Johns Hopkins Clinical Compounds Library, MCE FDA-Approved Drug Library, Pharmakon library; killing in clinical range
From the text: To identify drugs capable of killing Neisseria gonorrhoeae, the Johns Hopkins Clinical Compounds Library (1514), the MCE FDA-Approved Drug Library (2441), and the Pharmakon library (1600) were screened against N. gonorrhoeae. Positive hits that are capable of killing Neisseria gonorrhoeae in clinical range were identified (itraconazole, ravuconazole and isavuconazole).

[5] = test system: N. meingitidis; experiment: MIC against Neisseria spp.; assay type: cell-based, Neisseria meningitidis; details: N. meingitidis (5 strains)
[6] = test system: N. flavescens; experiment: MIC against Neisseria spp.; assay type: cell-based; details: N. flavescens (1 strain)
From the text: (§1) Intrigued by the specificity and potent activity of azoles against N. gonorrhoeae, we evaluated the extent of the azoles' antibacterial activity against other Neisseria species (Table 8).

[7] = test system: N. lactamica; experiment: MIC against Neisseria spp.; assay type: cell-based; details: N. lactamica (1 strain)
From the text: as §1

[8] = test system: N. mucosa; experiment: MIC against Neisseria spp.; assay type: cell-based; details: N. mucosa (1 strain)
From the text: as §1

[9] = test system: Bifidobacterium angulatum; experiment: MIC against normal gut microbiota; assay type: cell-based; details: Bifidobacterium angulatum (1 strain)
From the text: (§2) Disrupting the intestinal microbiota using broad-spectrum antimicrobial therapy increases the susceptibility of hosts to C. difficile colonization.

[10] = test system: Lactobacillus brevis; experiment: MIC against normal gut microbiota; assay type: cell-based; details: Lactobacillus brevis (1 strain)
From the text: as §2

[11] = test system: Lactobacillus rhamnosus; experiment: MIC against normal gut microbiota; assay type: cell-based; details: Lactobacillus rhamnosus (1 strain)
From the text: as §2

[12] = MIC against normal gut microbiota; assay type: cell-based
From the text: as §2

[13] = test system: Enterococcus faecalis; experiment: MIC against normal gut microbiota; assay type: cell-based; details: Enterococcus faecalis (1 strain)
From the text: as §2

[14] = test system: Bacteroides dorei; experiment: MIC against normal gut microbiota; assay type: cell-based; details: Bacteroides dorei (2 strains)
From the text: as §2

[15] = test system: Escherichia coli; experiment: MIC against normal gut microbiota; assay type: cell-based; details: Escherichia coli (1 strain)
From the text: as §2

[16] = test system: Lactobacillus casei; experiment: MIC against normal gut microbiota; assay type: cell-based; details: Lactobacillus casei (1 strain)
From the text: as §2

[17] = test system: Staphylococcus aureus; experiment: MIC against normal gut microbiota; assay type: cell-based; details: Staphylococcus aureus (1 strain)
From the text: as §2

[18] = test system: Bacteroides fragilis; experiment: MIC against normal gut microbiota; assay type: cell-based; details: Bacteroides fragilis (4 strains)
From the text: as §2

[19] = test system: Enterococcus faecium; experiment: MIC against normal gut microbiota; assay type: cell-based; details: Enterococcus faecium (1 strain)
From the text: as §2

[20] = test system: L. johnsonii; experiment: MIC against commensal vaginal Lactobacillus strains; assay type: cell-based, Lactobacillus johnsonii
[21] = Table 1, 104 N. gonorrhoeae isolates
[22] = Table 3, 103 N. gonorrhoeae isolates with different resistance profiles

For `C[C@@H](c1nc(-c2ccc(C#N)cc2)cs1)[C@](O)(Cn1cncn1)c1cc(F)ccc1F` [Isavuconazole], the MIC ([1]; L. jensenii HM-105) was > 256 µg/mL, the MIC ([1]; L. jensenii HM-372) was > 256 µg/mL and the MIC ([1]; L. jensenii HM-374) was > 256 µg/mL. The MIC ([1]; L. jensenii HM-639) was > 256 µg/mL, the MIC ([1]; L. jensenii HM-640) was > 256 µg/mL and the MIC ([1]; L. jensenii HM-645) was > 256 µg/mL. For the same compound, the MIC ([1]; L. jensenii HM-646) was > 256 µg/mL, the “MIC Range” value ([1]; Table 6, L. jensenii (7 strains)) was ≥256 µg/mL and the MIC ([2]; L. gasseri HM-407) was > 256 µg/mL. The MIC ([2]; L. gasseri HM-642) was > 256 µg/mL, the MIC ([2]; L. gasseri HM-644) was > 256 µg/mL and the MIC ([2]; L. gasseri HM-647) was > 256 µg/mL. The “MIC Range” value ([2]; Table 6, L. gasseri (4 strains)) was ≥256 µg/mL, the MIC50 [3, 21] was 0.5 µg/mL (≈ 1.14 µM) and the MIC90 [3, 21] was 1 µg/mL (≈ 2.29 µM). For the same compound, the MIC50 [3, 22] was 0.5 µg/mL (≈ 1.14 µM), the MIC90 [3, 22] was 1 µg/mL (≈ 2.29 µM) and the “MIC Range” value [3, 21] was 0.015 to 2 µg/mL. The “MIC Range” value [3, 22] was 0.015 to 4 µg/mL, the screening outcome [4] was “Positive hits” and the “MIC Range” value [5] was 0.25 to 0.5 µg/mL. For the same compound, the “MIC Range” value [6] was 16 µg/mL (≈ 36.6 µM), the “MIC Range” value [7] was 1 µg/mL (≈ 2.29 µM) and the “MIC Range” value [8] was 8 µg/mL (≈ 18.3 µM). The “MIC Range” value [9] was >256 µg/mL, the “MIC Range” value [10] was >256 µg/mL and the “MIC Range” value [11] was >256 µg/mL. The “MIC Range” value ([12]; Bacteroides adolescentis (2 strains)) was >256 µg/mL, the “MIC Range” value ([12]; Bacteroides breve (2 strains)) was >256 µg/mL and the “MIC Range” value ([12]; Bacteroides longum (2 strains)) was >256 µg/mL. For the same compound, the “MIC Range” value [13] was >256 µg/mL, the “MIC Range” value [14] was >256 µg/mL and the “MIC Range” value [15] was >256 µg/mL. The “MIC Range” value [16] was >256 µg/mL, the “MIC Range” value [17] was >256 µg/mL and the “MIC Range” value [18] was >256 µg/mL. The “MIC Range” value [19] was >256 µg/mL, the MIC ([20]; Lactobacillus johnsonii, L. johnsonii HM-643) was > 256 µg/mL and the “MIC Range” value ([20]; Table 6, L. johsonii (2 strains)) was ≥256 µg/mL.
